US20160022625A1, “TASHINONES AND THEIR DERIVATIVES: NOVEL EXCELLENT DRUGS FOR ALZHEIMER DISEASE” (priority 2013, published 2016)
Where two headings read alike, the source gives them in different places.

What was measured:
[1] = target: T1, Aβ1-42 fibrils (Homo sapiens, UniProt P05067); test: Disruption assay of preformed Aβ fibrils (ThT fluorescence); assay type: biochemical; conditions: 20 μM Aβ fibrils, 37° C.; for decrease in ThT fluorescence of preformed Aβ fibrils vs untreated Aβ control: Aβ:TS=1:1, 48 hour co-incubation; for ThT intensity of preformed Aβ fibrils decreased by: Aβ:TS=1:2, 48 hour co-incubation
T1 construct: Aβ1-42 peptide (≧95.5%) was all purchased from American Peptide Inc; purchased American Peptide Inc. (Sunnyvale, Calif.)
Protocol: The alternative potential therapeutic strategy to treat AD (Alzheimer's Disease) is to reduce the amount of the existing amyloid plaques. A very few molecules have been reported to disaggregate Aβ amyloid. […] To determine the ability of Aβ fibril dissolution by tanshinone in vitro, we set up experiments in which tanshinone was incubated with preformed fibrils. 20 μM Aβ fibrils were first prepared by incubating Aβ monomers in solution for 48 hour, which is sufficient long enough for Aβ to grow into mature fibrils as evidenced through AFM images and ThT fluorescence (FIG. 2). Upon 48 hour incubation, Aβ fibril solution was then co-incubated with TS1 or TS2 with different molar ratios of Aβ:TS (1:1, 1:2, and 1:5) for another 48 hour at 37° C.
Aβ1-42 fibrils were prepared by incubating 20 μM Aβ1-42 monomers for 48 h, which is sufficient long enough to enable Aβ peptides to grow into mature fibrils at a saturate state. The fibril solution was then divided into aliquots for the disruption tests. […] All the disruption samples were incubated at 37° C.
(§1) Aβ1-42 fibrillization and Aβ1-42 fibril disruption in the presence and absence of tanshinones were monitored by ThT fluorescence assay. 2 mM ThT store solution was prepared by adding 0.0328 g ThT powder into 50 mL DI water. 250 μL of the 2 mM ThT solution was further diluted into 50 mL Tris-buffer (pH=7.4) to reach a final concentration of 10 μM. 60 μL of 20 μM Aβ with or without tanshinone was put into 3 mL of 10 μM ThT-Tris solution. Fluorescence spectra were obtained using a LS-55 fluorescence spectrometer (Perkin Elmer Corp., Waltham, Mass.). All measurements were carried out in aqueous solution using a 1 cm×1 cm quartz cuvette. ThT fluorescence emission intensity of each sample was recorded between 460 and 510 nm with an excitation wavelength of 450 nm. Fluorescence intensity from solution without Aβ1-42 was subtracted from solution containing Aβ1-42. Each experiment was repeated in 3 independent samples and each sample was tested quadrupled.

[2] = target: T2, Aβ1-42 (Homo sapiens, UniProt P05067); test: ThT fluorescence assay of Aβ1-42 amyloid formation (inhibition assay); assay type: biochemical; conditions: 20 μM Aβ1-42, 37° C.; for final ThT fluorescence intensity reduced by: Aβ:TS=1:2, 24 hour
T2 construct: Aβ1-42 peptide (≧95.5%) was all purchased from American Peptide Inc; purchased American Peptide Inc. (Sunnyvale, Calif.)
Protocol: (§2) To examine the inhibitory effect of TS1 and TS2 on Aβ aggregation, the kinetics and morphological changes of Aβ1-42 amyloid formation in the presence of different molar ratios (Aβ:TS) of two tanshinone compounds were monitored by ThT fluorescence assay and AFM (Atomic force microscopy). 20 μM Aβ1-42 solution (with or without tanshinone) was incubated at 37° C. for 48 h. ThT fluorescence assay has been widely used to detect the formation of amyloid fibrils because the binding of thioflavin dyes to amyloid fibrils enables to reduce self-quenching by restricting the rotation of the benzothiozole and benzaminic rings, leading to a significant increase in fluorescence quantum yield. […] After 24 hour reaction, a strong ThT emission was observed and remained almost unchanged within statistic errors between 24 and 48 hour incubation.
A homogeneous solution of Aβ monomers was required for inhibition tests. The purified Aβ1-42 powder was aliquoted in DMSO for 1 min and sonicated for 30 sec. The initiation of 20 μM Aβ1-42 [containing 1% (v/v) DMSO] aggregation in solution was accomplished by adding an aliquot of the concentrated DMSO-Aβ1-42 solution to 10 mM PBS buffer, followed by immediate vortexing to mix thoroughly. Aβ1-42 solution was then centrifuged with 14,000 rpm for 30 min at 4° C. to remove any existing oligomers, which 75% of the top solution was removed for further incubation or inhibition experiments. The pure Aβ1-42 solution was incubated at 37° C. as control. For Aβ inhibition experiments, 40 mM tanshinone (in DMSO) stock solution was dissolved in freshly prepared Aβ1-42 monomer solution to a final concentration of 20 μM and 40 μM (with Aβ:tanshinone molar ratio of 1:1 and 1:2), respectively. The mixed Aβ-tanshinone samples were incubated at 37° C.
as §1

[3] = target: T2, Aβ1-42; test: AFM morphology of Aβ1-42 incubated with tanshinones; conditions: Aβ:TS=1:1, within the first 4 hours
Protocol: as §2
The morphology change of Aβ fibrillization and disruption in the presence and absence of tanshinones was characterized by AFM. A 25 μL sample used in the Aβ1-42 ThT fluorescence assay was taken for AFM measurement at different time points to correlate Aβ morphology change with Aβ grow kinetics. […]

[4] = tested on: SH-SY5Y cells; test: Live/dead cell assay, protection from Aβ-induced toxicity; assay type: cell-based, Human; conditions: for protect cultured-cells from Aβ-induced toxicity by: co-incubation of Aβ with a very small amount of TSs; for percentage of dead cells (normalized to Aβ alone = 100%): tanshinone 4 μM + Aβ 20 μM (1:0.2), 24 hour, SH-SY5Y
Text: (§3) In order to determine whether tanshinone compounds are able to protect neuronal cells from toxic Aβ species, we conducted cell viability experiments to compare the toxic effects of Aβ, TS1, TS2, Aβ-TS1, and Aβ-TS2 on the SH-SY5Y cells using the SH-SY5Y live/dead assay, which is widely used in studies of Aβ toxicity. Opti-MEM reduced serum medium was used to minimize the noise of fluorescence. We then set the cell death data obtained from Aβ-cell control experiment as a basis of 100% to normalize other data for comparison. […] When treated the cells with 8 μM TS1 or TS2 alone (Aβ:TS=1:0.4), cell death was 25.3% and 20.5% (FIG. 5), respectively. Considering the physiological concentration of Aβ is as low as 10^-9 M, 8 μM tanshinone may exceed a lethal dose to induce cell death. We thus reduced the concentation of TS1 or TS2 to a clinical trial level of 4 μM for cell viability tests. […] We then performed Aβ-tanshione cell toxicity experiments using a 1:0.2 mixture of tanshinones (4 μM) and Aβ (20 μM). […] TS1 appears to be less toxic than TS2 by 13.8%.
(§4) All chemicals for cell culture were purchased from Life Technologies unless otherwise stated. Human neuroblastoma SH-SY5Y cell (ATCC, Manassas, Va., USA) was used as model neuron and cultured in 75 cm^2 T-flasks (Corning) in sterile-filtered Eagles Minimum Essential Medium and Ham's F-12 medium mixed at a 1:1 ratio containing 10% fetal bovine serum (EMEM, ATCC, Manassas, Va., USA), and 1% penicillin/streptomycin in 37° C., humidified air with 5% CO2. Cells were cultured to confluence, and harvested using 0.25 mg/ml Trypsin/EDTA solution (Lonza). Before adding Aβ and tanshinone, cells were re-suspended in Opti-MEM reduced serum medium and counted using a hemacytometer. Cells were then plated in a 24-well tissue culture plate with approximately 150,000 cells per well in 500 μl of Opti-MEM reduced serum medium, and allowed to attach for 24 hours inside the incubator.
Aβ oligomers were prepared by incubating a 1 mM Aβ-PBS solution at 37° C. for 24 h. Aβ oligomers with a molar ratio of Aβ:tanshinone of 1:0.2 were added to each well to reach a final concentration of 20 μM. The cells were then left for 24 hours before cell toxicity tests. A live/dead cytotoxicity assay, which determines live and dead cells with two probes by measuring intracellular esterase activity and plasma membrane integrity, was used to obtain cell viability/toxicity data. Cells were stained by adding 2 μM of Calcein AM (Life Technologies) to distinguish the presence of live cells with a fluorescence excitation/emission of 494/517 nm, while by adding 5 μM of Ethidium homodimer-1 (Life Technologies) to distinguish the presence of dead cells with a fluorescence excitation/emission of 528/617 nm. […] A Zeiss Axiovert 40 CFL inverted microscope fitted with filters at 510 nm and 600 nm was used to obtain fluorescence images of the live and dead cells. Fluorescence readings at 494/517 nm and 528/617 nm were detected using a Synergry H1 microplate reader (BioTek, Winooski, Vt.). […] Fi corresponds to the dead/live fluorescence signal of cells (blank control), cells co-incubate with TS1, cells co-incubate with TS2, cells co-incubate with Aβ and TS1, cells co-incubate with Aβ and TS2, and cells co-incubate with Aβ, respectively. FAβ represents the dead/live fluorescence signal of cells co-incubate with Aβ. The fluorescence signals of blank dyes were calibrated first and then subtracted from the fluorescence signals of medium solution.

[5] = tested on: SH-SY5Y cells; test: Live/dead cell toxicity assay, tanshinone alone; assay type: cell-based
Text: as §3, §4
Aβ oligomers were prepared by incubating a 1 mM Aβ-PBS solution at 37° C. for 24 h. Aβ oligomers with a molar ratio of Aβ:tanshinone of 1:0.2 were added to each well to reach a final concentration of 20 μM. The cells were then left for 24 hours before cell toxicity tests. A live/dead cytotoxicity assay, which determines live and dead cells with two probes by measuring intracellular esterase activity and plasma membrane integrity, was used to obtain cell viability/toxicity data. Cells were stained by adding 2 μM of Calcein AM (Life Technologies) to distinguish the presence of live cells with a fluorescence excitation/emission of 494/517 nm, while by adding 5 μM of Ethidium homodimer-1 (Life Technologies) to distinguish the presence of dead cells with a fluorescence excitation/emission of 528/617 nm. The cells were incubated for 15 minutes with the live/dead assay contents to activate the fluorescent dyes. A Zeiss Axiovert 40 CFL inverted microscope fitted with filters at 510 nm and 600 nm was used to obtain fluorescence images of the live and dead cells. Fluorescence readings at 494/517 nm and 528/617 nm were detected using a Synergry H1 microplate reader (BioTek, Winooski, Vt.). Cell death in each incubation condition was normalized using the equation of ΔF=(Fi/FAβ)*100%, where ΔF is the percentage of cell death in different incubation conditions compared with the death of cells co-incubate with Aβ. Fi corresponds to the dead/live fluorescence signal of cells (blank control), cells co-incubate with TS1, cells co-incubate with TS2, cells co-incubate with Aβ and TS1, cells co-incubate with Aβ and TS2, and cells co-incubate with Aβ, respectively. FAβ represents the dead/live fluorescence signal of cells co-incubate with Aβ. The fluorescence signals of blank dyes were calibrated first and then subtracted from the fluorescence signals of medium solution.

T1 sequence (P05067 672-713 limits assumed): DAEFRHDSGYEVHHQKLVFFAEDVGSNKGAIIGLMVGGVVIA
T2 sequence (P05067 672-713 limits assumed): as above

Structure (SMILES) | decrease in ThT fluorescence of preformed Aβ fibrils vs untreated Aβ control [1] [%] | ThT intensity of preformed Aβ fibrils decreased by [1] [%] | ThT intensity relative to Aβ samples without inhibitors decreased by ([2]; Aβ:TS=1:1, 24 hour) [%] | ThT intensity relative to Aβ samples without inhibitors decreased by ([2]; Aβ:TS=1:1, 48 hour) [%] | final ThT fluorescence intensity reduced by [2] [%] | small spherical particles in AFM images [3] | protect cultured-cells from Aβ-induced toxicity by [4] [%] | less toxic than TS2 by (difference in dead cells) ([4]; tanshinone 4 μM + Aβ 20 μM) [%] | percentage of dead cells (normalized to Aβ alone = 100%) [4] [%] | cell death (normalized to Aβ-treated cells = 100%) ([5]; 4 μM TS alone, 24 hour, SH-SY5Y) [%] | cell death (normalized to Aβ-treated cells = 100%) ([5]; 8 μM TS alone, 24 hour, SH-SY5Y) [%] | signs of cell death by fluorescence microscopy ([5]; pure TS, 4 μM level, SH-SY5Y) | signs of cell death by fluorescence microscopy [5] | cell death (normalized to Aβ-treated cells = 100%) ([5]; human, 24 h, 4 μM) [%] | cell death (normalized to Aβ-treated cells = 100%) ([5]; human, 24 h, 8 μM) [%]
Cc1coc2c1C(=O)C(=O)c1c-2ccc2c(C)cccc12 [TS1, tanshinone I] | ~0.8 | ~30 | 78.2 | 65.8 | 88.5 | 1-3 nm | ~57.5 | 13.8 | ~57.5 | 9.3 | 25.3 | no observable signs of cell death | – | – | –
Cc1coc2c1C(=O)C(=O)c1c-2ccc2c1CCCC2(C)C [TS2, tanshinone IIA] | ~0.8 | ~30 | 44.8 | 34.6 | 83.4 | 1-6 nm | ~71.3 | – | ~71.3 | – | – | – | no observable signs of cell death | 5.8 | 20.5
